This note sets out measurements from patent publication US8207172B2 (Bayer Intellectual Property GmbH, priority 2004, dated 2012).

Molecules are shown by their SMILES. Where a name gives a salt, the structure may show the parent alone.

The subject of assay [1] is A431 cells (human epidermoid carcinoma). Put plainly: In vitro tumor cell proliferation assay (Cell Titer-Glo luminescent cell viability), A431. Format: cell-based. To be noted: A-431, 72 h, 72 hours of drug exposure, ATP luminescence readout, read-out: IC50, anti-proliferative activity (inhibition of cell proliferation). The procedure, abridged:
(§1)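 Seeding density 2.5×10^3 cells/well; 72 h drug exposure at 37° C; endpoint CellTiter-Glo luminescence, reported as IC50.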

The test system of assay [2] is BT474 (human breast carcinoma). Put plainly: In vitro tumor cell proliferation assay (Cell Titer-Glo luminescent cell viability), BT474. In kind it is cell-based. The following applies: BT-474, 72 h, BT474 cells, 72 hours of drug exposure, ATP luminescence readout, read-out: IC50, anti-proliferative activity (inhibition of cell proliferation). The procedure, abridged:
as §1
Background: In ATP-based viability assays light output follows the ATP content of the culture.

`OCCNC[C@@H](O)Cn1cc2c(n1)CCc1c-2sc2ncnc(Nc3ccc(OCc4cccc(F)c4)c(Cl)c3)c12` [Example 151, (2R)-1-[6-({3-chloro-4-[(3-fluorobenzyl)oxy]phenyl}amino)-4,5-dihydro-2H-pyrimido[5′,4′:4,5]thieno[2,3-e]indazol-2-yl]-3-[(2-hydroxyethyl)amino]propan-2-ol trifluoroacetate (salt)]: the results for the IC50 in assay [1] and in assay [2] were not above 50 µM and not above 1 µM, respectively.
In the case of `O[C@H](CN1CCNCC1)Cn1cc2c(n1)CCc1c-2sc2ncnc(Nc3ccc(OCc4cccc(F)c4)c(Cl)c3)c12` [Example 152, (2R)-1-[6-({3-chloro-4-[(3-fluorobenzyl)oxy]phenyl}amino)-4,5-dihydro-2H-pyrimido[5′,4′:4,5]thieno[2,3-e]indazol-2-yl]-3-piperazin-1-ylpropan-2-ol trifluoroacetate (salt)], the values for the IC50 in assay [1] and in assay [2] were not above 50 µM and not above 1 µM, respectively.
Regarding `CS(=O)(=O)CCNC[C@@H](O)Cn1cc2c(n1)CCc1c-2sc2ncnc(Nc3ccc(OCc4cccc(F)c4)c(Cl)c3)c12` [Example 154, (2R)-1-[6-({3-chloro-4-[(3-fluorobenzyl)oxy]phenyl}amino)-4,5-dihydro-2H-pyrimido[5′,4′:4,5]thieno[2,3-e]indazol-2-yl]-3-{[2-(methylsulfonyl)ethyl]amino} propan-2-ol trifluoroacetate (salt)], the IC50 was not above 50 µM in assay [1] and not above 1 µM in assay [2].
As for `CNC[C@@H](O)Cn1cc2c(n1)CCc1c-2sc2ncnc(Nc3ccc(OCc4cccc(F)c4)c(Cl)c3)c12` [Example 155, (2R)-1-[6-({3-chloro-4-[(3-fluorobenzyl)oxy]phenyl}amino)-4,5-dihydro-2H-pyrimido[5′,4′:4,5]thieno[2,3-e]indazol-2-yl]-3-(methylamino)propan-2-ol trifluoroacetate (salt)], the IC50 was not above 50 µM in assay [1] and not above 1 µM in assay [2].
In the case of `CN(C)C[C@@H](O)Cn1cc2c(n1)CCc1c-2sc2ncnc(Nc3ccc(OCc4cccc(F)c4)c(Cl)c3)c12` [Example 156, (2R)-1-[6-({3-chloro-4-[(3-fluorobenzyl)oxy]phenyl}amino)-4,5-dihydro-2H-pyrimido[5′,4′:4,5]thieno[2,3-e]indazol-2-yl]-3-(dimethylamino)propan-2-ol trifluoroacetate (salt)], the IC50 in assay [1] is not above 50 µM; in assay [2] it was not above 1 µM.
Consider `CCNC[C@@H](O)Cn1cc2c(n1)CCc1c-2sc2ncnc(Nc3ccc(OCc4cccc(F)c4)c(Cl)c3)c12` [Example 157, (2R)-1-[6-({3-chloro-4-[(3-fluorobenzyl)oxy]phenyl}amino)-4,5-dihydro-2H-pyrimido[5′,4′:4,5]thieno[2,3-e]indazol-2-yl]-3-(ethylamino)propan-2-ol trifluoroacetate (salt)], for which the figures for the IC50 in assay [1] and in assay [2] were not above 50 µM and not above 1 µM, respectively.
Regarding `CCN(CC)C[C@@H](O)Cn1cc2c(n1)CCc1c-2sc2ncnc(Nc3ccc(OCc4cccc(F)c4)c(Cl)c3)c12` [Example 158, (2R)-1-[6-({3-chloro-4-[(3-fluorobenzyl)oxy]phenyl}amino)-4,5-dihydro-2H-pyrimido[5′,4′:4,5]thieno[2,3-e]indazol-2-yl]-3-(diethylamino)propan-2-ol trifluoroacetate (salt)], the IC50 is not above 50 µM in assay [1] and not above 5 µM in assay [2].
On to `CC(C)NC[C@@H](O)Cn1cc2c(n1)CCc1c-2sc2ncnc(Nc3ccc(OCc4cccc(F)c4)c(Cl)c3)c12` [Example 159, (2R)-1-[6-({3-chloro-4-[(3-fluorobenzyl)oxy]phenyl}amino)-4,5-dihydro-2H-pyrimido[5′,4′:4,5]thieno[2,3-e]indazol-2-yl]-3-(isopropylamino)propan-2-ol trifluoroacetate (salt)], for which the IC50 in assay [1] was not above 50 µM; in assay [2], not above 5 µM.
Turning to `NC[C@@H](O)Cn1cc2c(n1)CCc1c-2sc2ncnc(Nc3ccc(OCc4cccc(F)c4)c(Cl)c3)c12` [Example 160, (2R)-1-amino-3-[6-({3-chloro-4-[(3-fluorobenzyl)oxy]phenyl}amino)-4,5-dihydro-2H-pyrimido[5′,4′:4,5]thieno[2,3-e]indazol-2-yl]propan-2-ol trifluoroacetate (salt)], the IC50 in assay [1] was not above 50 µM; in assay [2], not above 5 µM.
For `CC(C)CNC[C@@H](O)Cn1cc2c(n1)CCc1c-2sc2ncnc(Nc3ccc(OCc4cccc(F)c4)c(Cl)c3)c12` [Example 161, (2R)-1-[6-({3-chloro-4-[(3-fluorobenzyl)oxy]phenyl}amino)-4,5-dihydro-2H-pyrimido[5′,4′:4,5]thieno[2,3-e]indazol-2-yl]-3-(isobutylamino)propan-2-ol trifluoroacetate (salt)], the IC50 in assay [1] was not above 50 µM; in assay [2], not above 5 µM.
As for `NC[C@@H](O)Cn1ncc2c1CCc1c-2sc2ncnc(Nc3ccc(OCc4cccc(F)c4)c(Cl)c3)c12` [Example 162, (2R)-1-amino-3-[6-({3-chloro-4-[(3-fluorobenzyl)oxy]phenyl}amino)-4,5-dihydro-3H-pyrimido[5′,4′:4,5]thieno[2,3-e]indazol-3-yl]propan-2-ol trifluoroacetate (salt)], the IC50 is not above 50 µM in assay [1] and not above 5 µM in assay [2].
In the case of `CC(C)NC[C@@H](O)Cn1ncc2c1CCc1c-2sc2ncnc(Nc3ccc(OCc4cccc(F)c4)c(Cl)c3)c12` [Example 163, (2R)-1-[6-({3-chloro-4-[(3-fluorobenzyl)oxy]phenyl}amino)-4,5-dihydro-3H-pyrimido[5′,4′:4,5]thieno[2,3-e]indazol-3-yl]-3-(isopropylamino)propan-2-ol trifluoroacetate (salt)], the IC50 in assay [1] is not above 50 µM; in assay [2], not above 5 µM.
As to `COCCN(CCOC)C[C@@H](O)Cn1ncc2c1CCc1c-2sc2ncnc(Nc3ccc(OCc4cccc(F)c4)c(Cl)c3)c12` [Example 164, (2R)-1-[bis(2-methoxyethyl)amino]-3-[6-({3-chloro-4-[(3-fluorobenzyl)oxy]phenyl}amino)-4,5-dihydro-3H-pyrimido[5′,4′:4,5]thieno[2,3-e]indazol-3-yl]propan-2-ol trifluoroacetate (salt)], the results for the IC50 in assay [1] and in assay [2] were not above 50 µM and not above 5 µM, respectively.
Regarding `O[C@H](CNCCN1CCOCC1)Cn1ncc2c1CCc1c-2sc2ncnc(Nc3ccc(OCc4cccc(F)c4)c(Cl)c3)c12` [Example 165, (2R)-1-[6-({3-chloro-4-[(3-fluorobenzyl)oxy]phenyl}amino)-4,5-dihydro-3H-pyrimido[5′,4′:4,5]thieno[2,3-e]indazol-3-yl]-3-[(2-morpholin-4-ylethyl)amino]propan-2-ol], the figures for the IC50 in assay [1] and in assay [2] were not above 50 µM and not above 1 µM, respectively.
On the same counts, the results for `CNC[C@@H](O)Cn1ncc2c1CCc1c-2sc2ncnc(Nc3ccc(OCc4cccc(F)c4)c(Cl)c3)c12` [Example 166, (2R)-1-[6-({3-chloro-4-[(3-fluorobenzyl)oxy]phenyl}amino)-4,5-dihydro-3H-pyrimido[5′,4′:4,5]thieno[2,3-e]indazol-3-yl]-3-(methylamino)propan-2-ol trifluoroacetate (salt)] are not above 50 µM and not above 1 µM.
On to `CN1CCN(C[C@@H](O)Cn2ncc3c2CCc2c-3sc3ncnc(Nc4ccc(OCc5cccc(F)c5)c(Cl)c4)c23)CC1` [Example 167, (2R)-1-[6-({3-chloro-4-[(3-fluorobenzyl)oxy]phenyl}amino)-4,5-dihydro-3H-pyrimido[5′,4′:4,5]thieno[2,3-e]indazol-3-yl]-3-(4-methylpiperazin-1-yl)propan-2-ol trifluoroacetate (salt)], for which the values for the IC50 in assay [1] and in assay [2] were not above 50 µM and not above 1 µM, respectively.
Turning to `CCN(CC)C[C@@H](O)Cn1ncc2c1CCc1c-2sc2ncnc(Nc3ccc(OCc4cccc(F)c4)c(Cl)c3)c12` [Example 168, (2R)-1-[6-({3-chloro-4-[(3-fluorobenzyl)oxy]phenyl}amino)-4,5-dihydro-3H-pyrimido[5′,4′:4,5]thieno[2,3-e]indazol-3-yl]-3-(diethylamino)propan-2-ol trifluoroacetate (salt)], the IC50 was not above 50 µM in assay [1] and not above 1 µM in assay [2].
`CCNC[C@@H](O)Cn1ncc2c1CCc1c-2sc2ncnc(Nc3ccc(OCc4cccc(F)c4)c(Cl)c3)c12` [Example 169, (2R)-1-[6-({3-chloro-4-[(3-fluorobenzyl)oxy]phenyl}amino)-4,5-dihydro-3H-pyrimido[5′,4′:4,5]thieno[2,3-e]indazol-3-yl]-3-(ethylamino)propan-2-ol trifluoroacetate (salt)]: the results for the IC50 in assay [1] and in assay [2] were not above 50 µM and not above 1 µM, respectively.
Consider `O[C@H](Cn1ccnc1)Cn1ncc2c1CCc1c-2sc2ncnc(Nc3ccc(OCc4cccc(F)c4)c(Cl)c3)c12` [Example 170, (2R)-1-[6-({3-chloro-4-[(3-fluorobenzyl)oxy]phenyl}amino)-4,5-dihydro-3H-pyrimido[5′,4′:4,5]thieno[2,3-e]indazol-3-yl]-3-(1H-imidazol-1-yl)propan-2-ol trifluoroacetate (salt)], for which the IC50 in assay [1] is not above 50 µM; in assay [2], not above 1 µM.
For `CN(C)C[C@@H](O)Cn1ncc2c1CCc1c-2sc2ncnc(Nc3ccc(OCc4cccc(F)c4)c(Cl)c3)c12` [Example 171, (2R)-1-[6-({3-chloro-4-[(3-fluorobenzyl)oxy]phenyl}amino)-4,5-dihydro-3H-pyrimido[5′,4′:4,5]thieno[2,3-e]indazol-3-yl]-3-(dimethylamino)propan-2-ol trifluoroacetate (salt)], the IC50 in assay [1] was not above 50 µM; in assay [2], not above 1 µM.
In the case of `OCCN(CCO)C[C@@H](O)Cn1ncc2c1CCc1c-2sc2ncnc(Nc3ccc(OCc4cccc(F)c4)c(Cl)c3)c12` [Example 172, (2R)-1-[bis(2-hydroxyethyl)amino]-3-[6-({3-chloro-4-[(3-fluorobenzyl)oxy]phenyl}amino)-4,5-dihydro-3H-pyrimido[5′,4′:4,5]thieno[2,3-e]indazol-3-yl]propan-2-ol trifluoroacetate (salt)], the IC50 in assay [1] was not above 50 µM; in assay [2], not above 1 µM.
